Measured values reported in US7807688B2, “Tri-heterocyclic compounds and a pharmaceutical comprising them as an active ingredient” (Ono Pharmaceutical Co., Ltd., priority 2000, dated 2010).

Tested on: male SD rats
Assay: Measurement of antianxiety activity using the elevated plus-maze
Assay type: in vivo, rat
Details: 3 and 10 mg/kg, 30 minutes after administration, 5 minutes period
Description: Two arms (open and closed) of equal width and length (50 cm×10 cm), which crossed at a right angle to form a plus maze, were elevated to a height 50 cm above the ground level. […] Lighting on both ends of the open arm was maintained at constant illumination. Thirty minutes after administration of various doses of test-compounds (5 mL/kg), male SD rats were placed in the center of the plus maze. The time spent(s) in the open arms and the number of entries into the respective arms were measured within a 5 minutes period. The investigation personnel for measuring the indexes positioned at a fixed location during the course of the experiment.

SMILES: CCC(CC)Nc1c2c(nc3c(-c4ccc(OC)cc4Cl)c(C)nn13)CCC2.Cl [Example 2(78), 8-(3-pentylamino)-2-methyl-3-(2-chloro-4-methoxyphenyl)-6,7-dihydro-5H-cyclopenta[d]pyrazolo[1,5-a]pyrimidine hydrochloride]
- time spent in the open arms (FIG. 1): extend significantly
- number of entries into the open arms (FIG. 2): increased significantly
